From ChEMBL document CHEMBL1130634, “Quinazolines: combined type 3 and 4 phosphodiesterase inhibitors” (Bioorg Med Chem Lett, 1998)

Assays:
[1] = molecular target: T1, 3',5'-cyclic-AMP phosphodiesterase 4B (Rattus norvegicus, UniProt P14646); test: Evaluated for its ability to inhibit PDE4B.
T1 sequence (P14646 whole entry): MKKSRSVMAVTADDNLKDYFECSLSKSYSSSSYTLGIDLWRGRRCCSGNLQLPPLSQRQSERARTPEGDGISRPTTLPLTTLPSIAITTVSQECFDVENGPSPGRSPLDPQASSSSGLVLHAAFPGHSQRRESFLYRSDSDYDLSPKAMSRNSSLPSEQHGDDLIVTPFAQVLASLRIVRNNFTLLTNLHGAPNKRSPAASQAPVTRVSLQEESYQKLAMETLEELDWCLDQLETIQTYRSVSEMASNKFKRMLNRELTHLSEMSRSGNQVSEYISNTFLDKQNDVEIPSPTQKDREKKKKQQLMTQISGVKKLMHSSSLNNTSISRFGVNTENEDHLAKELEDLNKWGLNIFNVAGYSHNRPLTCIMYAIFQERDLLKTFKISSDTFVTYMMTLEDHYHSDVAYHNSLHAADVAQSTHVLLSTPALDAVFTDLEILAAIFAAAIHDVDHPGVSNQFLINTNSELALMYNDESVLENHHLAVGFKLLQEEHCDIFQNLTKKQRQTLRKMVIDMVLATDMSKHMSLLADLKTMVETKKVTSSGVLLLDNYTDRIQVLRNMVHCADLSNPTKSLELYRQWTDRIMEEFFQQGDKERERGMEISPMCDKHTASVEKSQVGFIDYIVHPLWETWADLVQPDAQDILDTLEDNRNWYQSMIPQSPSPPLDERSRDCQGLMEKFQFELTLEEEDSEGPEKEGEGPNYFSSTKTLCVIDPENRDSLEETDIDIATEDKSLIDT

[2] = molecular target: 3',5'-cyclic-AMP phosphodiesterase 4D (Homo sapiens, UniProt Q08499); test: Evaluated for its ability to inhibit PDE4D.
Sequence of 3',5'-cyclic-AMP phosphodiesterase 4D (Q08499 whole entry): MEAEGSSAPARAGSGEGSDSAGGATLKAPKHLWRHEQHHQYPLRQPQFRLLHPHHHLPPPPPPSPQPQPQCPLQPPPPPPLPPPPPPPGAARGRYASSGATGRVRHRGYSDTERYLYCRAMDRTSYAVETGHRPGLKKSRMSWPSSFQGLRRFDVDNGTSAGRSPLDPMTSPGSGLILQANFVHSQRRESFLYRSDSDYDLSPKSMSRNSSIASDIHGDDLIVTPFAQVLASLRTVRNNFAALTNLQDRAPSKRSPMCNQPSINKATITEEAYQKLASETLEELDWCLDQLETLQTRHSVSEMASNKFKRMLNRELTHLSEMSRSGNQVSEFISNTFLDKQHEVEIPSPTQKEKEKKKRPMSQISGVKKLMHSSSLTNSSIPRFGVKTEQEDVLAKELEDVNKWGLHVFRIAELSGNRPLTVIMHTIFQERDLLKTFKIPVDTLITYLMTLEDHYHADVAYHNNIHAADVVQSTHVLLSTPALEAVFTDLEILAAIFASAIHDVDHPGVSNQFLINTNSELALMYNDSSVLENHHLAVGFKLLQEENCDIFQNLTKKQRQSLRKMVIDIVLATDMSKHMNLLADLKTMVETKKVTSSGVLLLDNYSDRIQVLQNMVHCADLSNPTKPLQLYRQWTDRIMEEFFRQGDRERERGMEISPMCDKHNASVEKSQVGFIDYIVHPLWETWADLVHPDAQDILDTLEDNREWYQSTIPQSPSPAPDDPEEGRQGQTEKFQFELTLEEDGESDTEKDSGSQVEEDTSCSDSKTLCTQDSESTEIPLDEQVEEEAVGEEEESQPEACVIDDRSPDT

[3] = molecular target: T2, 3',5'-cyclic-AMP phosphodiesterase 4A (Homo sapiens, UniProt P27815); test: Evaluated for its ability to inhibit PDE4A.
T2 sequence (P27815 whole entry): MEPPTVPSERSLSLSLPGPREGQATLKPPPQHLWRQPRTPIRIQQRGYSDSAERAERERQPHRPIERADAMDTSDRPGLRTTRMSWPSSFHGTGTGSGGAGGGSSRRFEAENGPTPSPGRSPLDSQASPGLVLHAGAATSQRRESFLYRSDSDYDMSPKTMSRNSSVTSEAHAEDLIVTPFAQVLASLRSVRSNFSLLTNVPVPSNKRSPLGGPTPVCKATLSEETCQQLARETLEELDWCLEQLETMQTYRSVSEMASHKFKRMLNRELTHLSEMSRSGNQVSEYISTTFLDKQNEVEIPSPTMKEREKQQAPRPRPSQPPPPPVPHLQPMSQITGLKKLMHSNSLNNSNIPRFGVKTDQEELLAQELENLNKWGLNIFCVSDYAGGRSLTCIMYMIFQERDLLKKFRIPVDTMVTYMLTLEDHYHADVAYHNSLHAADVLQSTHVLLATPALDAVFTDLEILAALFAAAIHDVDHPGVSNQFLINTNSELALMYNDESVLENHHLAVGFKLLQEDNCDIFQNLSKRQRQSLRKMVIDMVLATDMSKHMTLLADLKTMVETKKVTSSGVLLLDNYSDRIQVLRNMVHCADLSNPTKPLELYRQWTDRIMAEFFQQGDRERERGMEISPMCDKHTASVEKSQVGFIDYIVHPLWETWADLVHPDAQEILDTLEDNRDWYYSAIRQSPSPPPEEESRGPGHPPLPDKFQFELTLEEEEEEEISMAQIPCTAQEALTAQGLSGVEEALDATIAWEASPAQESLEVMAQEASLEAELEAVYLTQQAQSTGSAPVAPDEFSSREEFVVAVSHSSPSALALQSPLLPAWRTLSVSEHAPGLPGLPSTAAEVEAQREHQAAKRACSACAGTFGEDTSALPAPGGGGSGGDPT

Phosphodiesterase 3 = Phosphodiesterase 3 (Homo sapiens, UniProt Q14432+Q13370); test: Evaluated for its ability to inhibit PDE3.; format: protein assay
Phosphodiesterase 4 [4] = molecular target: T3, Phosphodiesterase 4 (Rattus norvegicus, UniProt P14270+P14646+P14644+P54748); test: Evaluated for the inhibition of [3H]rolipram binding to membrane-bound PDE4.
[5] = molecular target: T2, 3',5'-cyclic-AMP phosphodiesterase 4A; test: Inhibition of PDE4A
Phosphodiesterase 4 [6] = molecular target: T3, Phosphodiesterase 4; test: Inhibition of [3H]-rolipram binding to membrane-bound PDE4

IC50 [1] [nM] | IC50 [2] [nM] | IC50 [3] [nM] | IC50 (Phosphodiesterase 3) [nM] | IC50 (Phosphodiesterase 4 [4]) [nM] | IC50 [5] [nM] | IC50 (Phosphodiesterase 4 [6]) [nM] | Structure (SMILES)
> 100000 | > 100000 | > 100000 | – | – | – | – | CCc1nc(-c2cc(OCC3CC3)cc(OCC3CC3)c2)c2cc(OCCO)c(OCCO)cc2n1
25 | 22 | 30 | 16 | 15 | – | – | CCc1nc(-c2cc(OCC3CC3)cc(OCC3CC3)c2)c2cc(OC)c(OCCO)cc2n1
2500 | 1200 | 3300 | – | – | – | – | COc1cc2c(-c3cc(OCC4CC4)cc(OCC4CC4)c3)nc(N3CCOCC3)nc2cc1OCCO
600 | 540 | 2900 | – | – | – | – | CCc1nc(-c2cc(OCC3CC3)cc(OCC3CC3)c2)c2cc(OC)c(OCC3CC3)cc2n1
300 | 300 | 1300 | 720 | – | – | 50 | CCCCc1nc(-c2cc(OCC3CC3)cc(OCC3CC3)c2)c2cc(OC)c(OCCO)cc2n1
2400 | 650 | 3300 | – | – | – | – | CCc1nc(-c2cc(OCC3CC3)cc(OCC3CC3)c2)c2cc(OC)c(O)cc2n1

Second part, the molecule before the results:

Structure (SMILES) | IC50 [1] [nM] | IC50 [2] [nM] | IC50 [3] [nM] | IC50 (Phosphodiesterase 3) [nM] | IC50 (Phosphodiesterase 4 [4]) [nM] | IC50 [5] [nM] | IC50 (Phosphodiesterase 4 [6]) [nM]
CCc1nc(-c2cc(OCC3CC3)cc(OCC3CC3)c2)c2cc(OC)c(OCc3ccccc3)cc2n1 | > 100000 | > 100000 | > 100000 | – | – | – | –
COc1cc2c(-c3cc(OCC4CC4)cc(OCC4CC4)c3)nc(-c3cc(OCC4CC4)cc(OCC4CC4)c3)nc2cc1OCCO | 22000 | 8500 | 14000 | 7800 | – | – | –
COc1cc2c(-c3cc(OCC4CC4)cc(OCC4CC4)c3)nc(NCCCO)nc2cc1OCCO | 340 | 230 | 500 | 430 | 200 | – | –
COc1cc2nc(C)nc(-c3cc(OC(C)C)cc(OC(C)C)c3)c2cc1OC | 1300 | 1200 | 2300 | – | – | – | –
CCOC(=O)COc1cc2nc(C)nc(-c3cc(OCC4CC4)cc(OCC4CC4)c3)c2cc1OC | 61000 | > 100000 | > 10000 | 700 | – | – | –
COc1nc(-c2cc(OCC3CC3)cc(OCC3CC3)c2)c2cc(OC)c(OCCO)cc2n1 | 110 | 140 | 130 | 390 | 210 | – | –
COc1cc2c(-c3cc(OCC4CC4)cc(OCC4CC4)c3)nc(-c3cccs3)nc2cc1OCCO | 1300 | 3000 | 5400 | – | – | – | –
COc1cc2c(-c3cc(OCC4CC4)cc(OCC4CC4)c3)nc(OCCO)nc2cc1OCCO | 80 | 90 | 70 | 430 | – | – | –
CCOc1nc(-c2cc(OCC3CC3)cc(OCC3CC3)c2)c2cc(OC)c(OCCO)cc2n1 | 70 | 60 | 85 | 340 | 43 | – | –
COc1cc2nc(C)nc(-c3cc(O)cc(O)c3)c2cc1OC | 14000 | 2000 | – | – | – | 23500 | –
CCc1nc(-c2cc(OCC3CC3)cc(OCC3CC3)c2)c2ccc(OCCO)cc2n1 | 660 | 850 | 630 | – | – | – | –
COc1cc2c(-c3cc(OCC4CC4)cc(OCC4CC4)c3)nc(OCCCO)nc2cc1OCCO | 200 | 130 | 250 | 310 | 145 | – | –
CCSc1nc(-c2cc(OCC3CC3)cc(OCC3CC3)c2)c2cc(OC)c(OCCO)cc2n1 | 440 | 700 | 540 | – | – | – | –
COc1cc2nc(C)nc(-c3cc(OCC4CC4)cc(OCC4CC4)c3)c2cc1OC | 650 | 800 | 900 | – | – | – | –
